IC50 data for 28 compounds are collected here from patent US20260297070A1, “CYCLIC [COMPOUND LEFT OUT] WRN INHIBITORS” (Nimbus Wadjet, Inc., priority 2023, published 2026).

For this experiment, the target named is T1, human Werner helicase (WRN-BV08, Uniprot Q14191, amino acids 517-1235 with L1074F point mutation) (Homo sapiens, UniProt Q14191, L1074F).
T1 construct: Uniprot Q14191, amino acids 517-1235 with L1074F point mutation; TEV-cleavable 8×His (C, cleaved yes); made in house; host or cells: Sf9 insect cells (baculovirus)
T1 sequence (Q14191 with tags, fused parts or gaps L1074F limits assumed): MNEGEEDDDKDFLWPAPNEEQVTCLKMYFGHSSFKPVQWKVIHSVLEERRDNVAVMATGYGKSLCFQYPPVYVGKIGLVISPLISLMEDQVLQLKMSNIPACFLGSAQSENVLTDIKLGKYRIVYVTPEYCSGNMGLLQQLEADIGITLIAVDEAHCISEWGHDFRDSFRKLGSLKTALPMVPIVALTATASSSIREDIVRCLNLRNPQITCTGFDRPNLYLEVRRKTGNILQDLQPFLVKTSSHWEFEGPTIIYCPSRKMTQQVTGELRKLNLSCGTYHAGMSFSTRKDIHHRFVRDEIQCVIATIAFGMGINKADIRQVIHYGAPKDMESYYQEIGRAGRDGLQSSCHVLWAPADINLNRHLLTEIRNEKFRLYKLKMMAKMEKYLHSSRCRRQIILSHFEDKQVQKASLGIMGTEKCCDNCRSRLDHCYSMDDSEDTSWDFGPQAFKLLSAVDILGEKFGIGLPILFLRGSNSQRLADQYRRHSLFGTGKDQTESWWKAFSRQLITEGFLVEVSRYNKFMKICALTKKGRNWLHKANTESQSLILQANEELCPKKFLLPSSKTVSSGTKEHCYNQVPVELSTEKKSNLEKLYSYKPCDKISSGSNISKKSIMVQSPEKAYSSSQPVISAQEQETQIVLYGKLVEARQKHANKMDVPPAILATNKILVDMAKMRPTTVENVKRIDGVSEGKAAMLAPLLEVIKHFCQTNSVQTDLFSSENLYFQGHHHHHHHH
Description: WRN (BV08) ADP-Glo Assay. The format is biochemical. The following applies: 0.15 nM WRN, 5 μM ATP, 0.1 nM DNA duplex, 15 min preincubation, 60 min at 25° C., pH 7.5, 1% DMSO; read-out: ADP-Glo_hWRN_IC50. An outline of the steps: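 ADP produced by WRN helicase fragment 517-1235 (L1074F, baculovirus/Sf9, untagged) read by ADP-Glo luminescence after 60 min at 25 °C with 5 μM ATP and 0.1 nM duplex DNA, following 15 min compound preincubation. Final enzyme 0.15 nM in Bicine pH 7.5 buffer, 1% DMSO; 20 μM NSC-617145 defined full inhibition.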
A general note: In ADP-Glo the light output rises with the ADP produced.

Bounds are passed on as bounds.

On to `CC(C)(O)c1cc(CN(C(=O)Cn2cc(-c3ccc(F)cc3)cn2)[C@@H]2C=CS(=O)(=O)C2)ccn1` [I-15, N-[(3R)-1,1-dioxo-2,3-dihydro-1lambda6-thiophen-3-yl]-2-[4-(4-fluorophenyl)-1H-pyrazol-1-yl]-N-{[2-(2-hydroxypropan-2-yl)pyridin-4-yl]methyl}acetamide], for which the IC50 was under 0.5 µM.
For the compound `COc1cc(CN(C(=O)C2Cc3cc(-c4ccc(F)cc4)ccc3O2)C2C=CS(=O)(=O)C2)ccn1` (stereo not shown) [I-399, N-(1,1-dioxo-2,3-dihydro-1lambda6-thiophen-3-yl)-5-(4-fluorophenyl)-N-[(2-methoxypyridin-4-yl)methyl]-2,3-dihydro-1-benzofuran-2-carboxamide], the IC50 is over 50 µM.
As to `CN(C)C(=O)C(C(=O)N(Cc1ccncc1)C1C=CS(=O)(=O)C1)c1ccc(-c2ccc(F)cc2)cc1` (single isomer, unassigned) [I-27, (2R**)-N′-[(3R*)-1,1-dioxo-2,3-dihydro-1lambda6-thiophen-3-yl]-2-{4′-fluoro-[1,1′-biphenyl]-4-yl}-N,N-dimethyl-N′-[(pyridin-4-yl)methyl]propanediamide], the IC50 was under 0.5 µM.
In the case of `O=C1CC(c2ccc(F)cc2)CCN1CC(=O)N(Cc1ccncc1)C1C=CS(=O)(=O)C1` (stereo not shown) [I-457, N-(1,1-dioxo-2,3-dihydro-1lambda6-thiophen-3-yl)-2-[4-(4-fluorophenyl)-2-oxopiperidin-1-yl]-N-[(pyridin-4-yl)methyl]acetamide] it was over 50 µM; in that of `O=C(C1Cc2cc(-n3cccc3)ccc21)N(Cc1ccncc1)C1C=CS(=O)(=O)C1` (stereo not shown) [I-233, N-(1,1-dioxido-2,3-dihydrothiophen-3-yl)-N-(pyridin-4-ylmethyl)-3-(1H-pyrrol-1-yl)bicyclo[4.2.0]octa-1(6),2,4-triene-7-carboxamide], 5 to 10 µM; in that of `COc1cc(CN(C(=O)Cn2ncc3cc(C(F)(F)C(F)(F)F)ccc32)[C@@H]2C=CS(=O)(=O)C2)ccn1` [I-770, N-[(3R)-1,1-dioxo-2,3-dihydro-1lambda6-thiophen-3-yl]-N-[(2-methoxypyridin-4-yl)methyl]-2-[5-(1,1,2,2,2-pentafluoroethyl)-1H-indazol-1-yl]acetamide], 0.5 to 5 µM.
Next, `O=C(Cc1ccc(-n2cccc2)cc1)N(Cc1ccccc1)C1C=CS(=O)(=O)C1` (single isomer, unassigned) [I-262]: 5 to 10 µM; `O=C(Cc1ccc(S(F)(F)(F)(F)F)cc1)N(Cc1nnc(C2CC2)s1)C1C=CS(=O)(=O)C1` (stereo not shown) [I-645, N-[(5-cyclopropyl-1,3,4-thiadiazol-2-yl)methyl]-N-(1,1-dioxo-2,3-dihydro-1lambda6-thiophen-3-yl)-2-[4-(pentafluoro-lambda6-sulfanyl)phenyl]acetamide]: 0.5 to 5 µM; `CN(C)C(=O)C(C(=O)N(Cc1ccnc(C(C)(C)O)c1)C1C=CS(=O)(=O)C1)n1cc(-c2ccccc2)cn1` (stereo not shown) [I-594, N′-(1,1-dioxo-2,3-dihydro-1lambda6-thiophen-3-yl)-N′-{[2-(2-hydroxypropan-2-yl)pyridin-4-yl]methyl}-N,N-dimethyl-2-(4-phenyl-1H-pyrazol-1-yl)propanediamide]: 0.5 to 5 µM.
Next, `CC(F)(F)c1ccc(CC(=O)N(Cc2ccncc2)C2C=CS(=O)(=O)C2)cc1` (stereo not shown) [I-191, 2-[4-(1,1-difluoroethyl)phenyl]-N-(1,1-dioxo-2,3-dihydro-1lambda6-thiophen-3-yl)-N-[(pyridin-4-yl)methyl]acetamide]: 0.5 to 5 µM.
Turning to `COc1cc(CN(C(=O)Cc2ccc(-n3cccc3C)cc2F)C2C=CS(=O)(=O)C2)ccn1` (single isomer, unassigned) [I-31], the IC50 is under 0.5 µM.
In the case of `CCc1cccn1-c1ccc(CC(=O)N(Cc2ccnc(OC)c2)C2C=CS(=O)(=O)C2)c(F)c1` (stereo not shown) [I-204, N-(1,1-dioxo-2,3-dihydro-1lambda6-thiophen-3-yl)-2-[4-(2-ethyl-1H-pyrrol-1-yl)-2-fluorophenyl]-N-[(2-methoxypyridin-4-yl)methyl]acetamide] it was 0.5 to 5 µM.
Next, `O=C(Cn1cc2ccc(C(F)F)cc2n1)N(Cc1ccncc1)C1C=CS(=O)(=O)C1` (stereo not shown) [I-592, 2-[6-(difluoromethyl)-2H-indazol-2-yl]-N-(1,1-dioxo-2,3-dihydro-1lambda6-thiophen-3-yl)-N-[(pyridin-4-yl)methyl]acetamide]: 10 to 50 µM; `COc1cc(CN(C(=O)Cc2ccc(-n3cccc3)cc2)C2C=CS(=O)(=O)C2)ccn1` (stereo not shown) [I-156, N-(1,1-dioxo-2,3-dihydro-1lambda6-thiophen-3-yl)-N-[(2-methoxypyridin-4-yl)methyl]-2-[4-(1H-pyrrol-1-yl)phenyl]acetamide]: 0.5 to 5 µM; `COc1cc(CN(C(=O)C(c2ccc(-c3ccc(F)c(F)c3)cc2F)n2cc(OC(F)F)cn2)[C@@H]2C=CS(=O)(=O)C2)ccn1` (single isomer, unassigned) [I-685, (2R*)-2-[4-(difluoromethoxy)-1H-pyrazol-1-yl]-N-[(3R)-1,1-dioxo-2,3-dihydro-1lambda6-thiophen-3-yl]-N-[(2-methoxypyridin-4-yl)methyl]-2-{3,3′,4′-trifluoro-[1,1′-biphenyl]-4-yl}acetamide]: under 0.5 µM.
As for `COc1cc(CN(C(=O)Cc2ccc(-c3csc(C)n3)cc2F)C2C=CS(=O)(=O)C2)ccn1` (stereo not shown) [I-573, N-(1,1-dioxo-2,3-dihydro-1lambda6-thiophen-3-yl)-2-[2-fluoro-4-(2-methyl-1,3-thiazol-4-yl)phenyl]-N-[(2-methoxypyridin-4-yl)methyl]acetamide], the IC50 is over 50 µM.
Next, `O=C(Cn1cc(C2CCOC2)cn1)N(Cc1ccncc1)C1C=CS(=O)(=O)C1` (stereo not shown) [I-407, N-(1,1-dioxo-2,3-dihydro-1lambda6-thiophen-3-yl)-2-[4-(oxolan-3-yl)-1H-pyrazol-1-yl]-N-[(pyridin-4-yl)methyl]acetamide]: over 50 µM; `O=C(Cn1cnc(-c2ccccc2)n1)N(Cc1ccncc1)C1C=CS(=O)(=O)C1` (stereo not shown) [I-420, N-(1,1-dioxo-2,3-dihydro-1lambda6-thiophen-3-yl)-2-(3-phenyl-1H-1,2,4-triazol-1-yl)-N-[(pyridin-4-yl)methyl]acetamide]: over 50 µM.
Next, `O=C(C(C(=O)N(Cc1ccncc1)C1C=CS(=O)(=O)C1)c1ccc(-c2ccc(F)cc2)cc1)N1CCOCC1` (stereo not shown) [I-218, N-(1,1-dioxo-2,3-dihydro-1lambda6-thiophen-3-yl)-2-{4′-fluoro-[1,1′-biphenyl]-4-yl}-3-(morpholin-4-yl)-3-oxo-N-[(pyridin-4-yl)methyl]propanamide]: 5 to 10 µM; `CNC(=O)C(C(=O)N(Cc1ccnc(OC)c1)[C@@H]1C=CS(=O)(=O)C1)c1ccc(-c2ccc(F)c(F)c2)cc1F` (single isomer, unassigned) [I-694, (2R*)-N′-[(3R)-1,1-dioxo-2,3-dihydro-1lambda6-thiophen-3-yl]-N′-[(2-methoxypyridin-4-yl)methyl]-N-methyl-2-{3,3′,4′-trifluoro-[1,1′-biphenyl]-4-yl}propanediamide]: under 0.5 µM.
Take `CC(C)(O)c1cc(CN(C(=O)Cc2ccc(C3(C(F)(F)F)CC3)cc2)C2C=CS(=O)(=O)C2)ccn1` (single isomer, unassigned) [I-663]: the IC50 lay within 0.5 to 5 µM.
In the case of `O=C(Cc1ccc(-n2cccc2)cc1)N(Cc1ccccc1)C1C=CS(=O)(=O)C1` (single isomer, unassigned) [I-488] it was over 50 µM; in that of `O=C(Cc1ccc2oc3ccccc3c2c1)N(Cc1ccncc1)C1C=CS(=O)(=O)C1` (stereo not shown) [I-428, N-(1,1-dioxo-2,3-dihydro-1lambda6-thiophen-3-yl)-2-{8-oxatricyclo[7.4.0.0^{2,7}]trideca-1(13),2,4,6,9,11-hexaen-4-yl}-N-[(pyridin-4-yl)methyl]acetamide], over 50 µM.
Next, `O=C(Cc1ccc2c[nH]nc2c1)N(Cc1ccncc1)C1C=CS(=O)(=O)C1` (stereo not shown) [I-414, N-(1,1-dioxo-2,3-dihydro-1lambda6-thiophen-3-yl)-2-(2H-indazol-6-yl)-N-[(pyridin-4-yl)methyl]acetamide]: over 50 µM; `CC(=O)NCC(C(=O)N(Cc1ccncc1)C1C=CS(=O)(=O)C1)c1ccc(-c2ccc(F)cc2)cc1` (stereo not shown) [I-563, N-(1,1-dioxo-2,3-dihydro-1lambda6-thiophen-3-yl)-3-acetamido-2-{4′-fluoro-[1,1′-biphenyl]-4-yl}-N-[(pyridin-4-yl)methyl]propanamide]: over 50 µM; `O=C(Cc1ccc(-n2cccc2)cc1)N(Cc1cccc(Br)c1)C1C=CS(=O)(=O)C1` (stereo not shown) [I-157, N-[(3-bromophenyl)methyl]-N-(1,1-dioxo-2,3-dihydro-1lambda6-thiophen-3-yl)-2-[4-(1H-pyrrol-1-yl)phenyl]acetamide]: 0.5 to 5 µM.
In the case of `O=C(Cc1ccc(-n2cccc2)cc1)N(Cc1ccnc2[nH]cnc12)C1C=CS(=O)(=O)C1` (stereo not shown) [I-472, N-(1,1-dioxo-2,3-dihydro-1lambda6-thiophen-3-yl)-N-({3H-imidazo[4,5-b]pyridin-7-yl}methyl)-2-[4-(1H-pyrrol-1-yl)phenyl]acetamide] it was over 50 µM; in that of `Cc1cccn1-c1ccc(CC(=O)N(Cc2nc(C3CC3)cs2)C2C=CS(=O)(=O)C2)c(F)c1` (stereo not shown) [I-60, N-[(4-cyclopropyl-1,3-thiazol-2-yl)methyl]-N-(1,1-dioxo-2,3-dihydro-1lambda6-thiophen-3-yl)-2-[2-fluoro-4-(2-methyl-1H-pyrrol-1-yl)phenyl]acetamide], under 0.5 µM.
